Molecules are shown by their SMILES.

Experiment [1] has as its target T1, PDK1 (Homo sapiens, UniProt O15530).
T1 construct: His6 (N)
T1 sequence (O15530 51-556 limits assumed): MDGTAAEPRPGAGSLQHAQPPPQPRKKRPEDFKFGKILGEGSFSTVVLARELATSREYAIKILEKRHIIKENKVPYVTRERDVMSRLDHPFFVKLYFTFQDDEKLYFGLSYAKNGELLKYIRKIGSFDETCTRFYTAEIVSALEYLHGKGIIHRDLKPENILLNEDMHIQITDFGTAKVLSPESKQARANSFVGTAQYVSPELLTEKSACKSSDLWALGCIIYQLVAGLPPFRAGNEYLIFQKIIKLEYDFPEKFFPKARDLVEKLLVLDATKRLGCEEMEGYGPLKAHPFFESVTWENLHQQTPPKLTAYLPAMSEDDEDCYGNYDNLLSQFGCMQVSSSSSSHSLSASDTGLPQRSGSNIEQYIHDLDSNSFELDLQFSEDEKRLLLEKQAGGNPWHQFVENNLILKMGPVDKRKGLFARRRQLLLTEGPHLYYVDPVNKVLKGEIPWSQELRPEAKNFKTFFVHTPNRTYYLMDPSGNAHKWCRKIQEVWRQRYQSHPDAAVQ
As to the kind of experiment: Test for the inhibition of PDK1 (flashplate, 33P-ATP). Particulars: His6-PDK1 (1-50) 3.4 nM, 4 μM ATP, 30° C., 60 min; read-out: IC50 [PDK1] biochemical. The procedure:
The experimental batches are carried out in a flashplate system with 384 wells/microtitration plate.
In each case, the PDK1 sample His6-PDK1 (1-50) (3.4 nM), the PDK1 substrate biotin-bA-bA-[…] (400 nM), 4 μM ATP (with 0.2μ Ci of ^33P-ATP/well) and the test substance in 50 μl of conventional experimental solution per well are incubated at 30° C. for 60 min. The test substances are employed in corresponding concentrations (if desired in a dilution series). The control is carried out without test substance. The reaction is stopped using standard methods and washed. The activity of the kinase is measured via the incorporated radioactivity in top count. In order to determine the non-specific kinase reaction (blank value), the experimental batches are carried out in the presence of 100 nM staurosporin.
The radioactivity (decompositions per minute) of the blank value (no use of test substance in the presence of staurosporin) is subtracted from all other radioactivity values. The controls (kinase activity without test substance) are set equal to 100 percent and all other radioactivity values (after subtracting the blank value) are expressed set in relation thereto (for example in % of the control).
IC50 values (50% inhibition) are determined with the aid of statistics programmes, such as, for example, RS1.

In experiment [2] the target is T2, PDK1 (Homo sapiens, UniProt O15530).
T2 construct: endogenous in cells; host or cells: PC3 cells
T2 sequence (O15530 1-556): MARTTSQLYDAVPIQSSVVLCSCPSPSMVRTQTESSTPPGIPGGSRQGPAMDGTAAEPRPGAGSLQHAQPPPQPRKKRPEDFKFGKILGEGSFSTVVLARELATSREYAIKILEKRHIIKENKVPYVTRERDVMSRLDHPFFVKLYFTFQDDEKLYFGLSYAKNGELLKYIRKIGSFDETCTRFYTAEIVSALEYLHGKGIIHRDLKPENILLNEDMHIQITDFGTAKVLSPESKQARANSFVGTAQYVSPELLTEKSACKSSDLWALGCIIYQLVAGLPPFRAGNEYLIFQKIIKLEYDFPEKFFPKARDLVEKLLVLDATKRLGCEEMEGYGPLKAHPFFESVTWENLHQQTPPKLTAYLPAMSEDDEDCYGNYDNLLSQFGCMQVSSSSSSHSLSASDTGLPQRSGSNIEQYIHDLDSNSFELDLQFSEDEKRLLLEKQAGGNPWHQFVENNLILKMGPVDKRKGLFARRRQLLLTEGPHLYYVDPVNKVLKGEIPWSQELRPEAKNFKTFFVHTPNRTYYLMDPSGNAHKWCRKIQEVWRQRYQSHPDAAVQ
As to the kind of experiment: Cellular testing of PDK1 kinase inhibitors in PC3 cells (Luminex, phospho-T308-PKB). In kind it is cell-based. Particulars: 30 min, serum-free. The procedure:
Method for the Cellular Testing of PDK1 Kinase Inhibitors in PC3 Cells.
The cellular assay for the determination of the PDK1 kinase activity is carried out as a Luminex assay in the 96-well format. PC3 cells are sown at 20,000 cells per well in 100 μl of medium (45% of […]/45% of Ham's F12/10% of FCS) and incubated on the following day for 30 min with a serial dilution of the test substance (7 concentrations) under serum-free conditions. The cells are subsequently lysed using 90 μl of lysis buffer (20 mM tris/HCl pH 8.0, 150 mM NaCl, 1% of NP40, 10% of glycerol, 1% of phosphatase inhibitor I, 1% of phosphatase inhibitor II, 0.1% of protease inhibitor cocktail III, 0.01% of benzonase) per well, and the lysates are separated off from insoluble cell constituents by means of centrifugation through a 96-well filter plate (0.65 μm). The lysates are incubated overnight at 4° C. with shaking with Luminex beads to which an anti-total PKB antibody is coupled. The detection is carried out on the following day by addition of a phospho-T308-PKB antibody and a species-specific […] secondary antibody. The detection of phospho T308-PKB is carried out by measurement in a Luminex100 instrument by determination of 100 events per cavity in a measurement time of 60 sec. As pharmacological blank, the signals obtained from cells which have been treated with 10 μM staurosporin are subtracted from all other batches. The control value used for maximum phosphorylation of PKB on T308 are the signals from cells which have only been treated with the solvent (0.3% of DMSO). The values of the batches treated with test substance are calculated therefrom as percentage of control, and IC50 values are determined by means of RS 1.

Take `Cn1cc(-c2cnc3[nH]cc(-c4nnc(C(O)c5cccc(F)c5)o4)c3c2)cn1` (stereo not drawn) [A47]: the IC50 in experiment [1] and in experiment [2] was 0.5 to 1000 nM throughout.
In the case of `Cn1cc(-c2cnc3[nH]cc(-c4noc(C(C)(O)c5ccccc5F)n4)c3c2)cn1` (stereo not drawn) [A50], the half-inhibitory concentration (IC50) is 0.5 to 1000 nM in experiment [1] and 1000 to 10000 nM in experiment [2].
In the case of `Cn1cc(-c2cnc3[nH]cc(-c4n[nH]c(C(=O)c5ccccc5)n4)c3c2)cn1` [A39], the IC50 in experiment [1] and in experiment [2] was 1000 to 10000 nM each time.
Regarding `Cn1cc(-c2cnc3[nH]cc(-c4nnc(Cc5cccc(F)c5)o4)c3c2)cn1` [A19, 3-[5-(3-fluorobenzyl)-1,3,4-oxadiazol-2-yl]-5-(1-methyl-1H-pyrazol-4-yl)-1H-pyrrolo[2,3-b]pyridine], the values for the IC50 in experiment [1] and in experiment [2] were 0.5 to 1000 nM and 1000 to 10000 nM, respectively.
On the same counts, the results for `Cn1cc(-c2cnc3[nH]cc(-c4cc(C(C)(O)c5ccc(=O)n(C)n5)on4)c3c2)cn1` (stereo not drawn) [A99, 6-(1-hydroxy-1-{3-[5-(1-methyl-1H-pyrazol-4-yl)-1H-pyrrolo-[2,3-b]pyridin-3-yl]isoxazol-5-yl}ethyl)-2-methyl-2H-pyridazin-3-one] are 0.5 to 1000 nM and 1000 to 10000 nM.
Take `CCC(O)(c1cc(-c2c[nH]c3ncc(-c4cnn(C)c4)cc23)no1)c1ccccc1F` (stereo not drawn) [A25]: the half-maximal inhibitory concentration (IC50) in experiment [1] and in experiment [2] was 0.5 to 1000 nM throughout.
Take `Cn1cc(-c2cnc3[nH]cc(-c4nnc(C(C)(O)c5ccccc5F)o4)c3c2)cn1` (stereo not drawn) [A48]: the IC50 in experiment [1] and in experiment [2] was 0.5 to 1000 nM in each case.
With `Cn1cc(-c2cnc3[nH]cc(-c4cc(C(C)(O)c5ccccc5)on4)c3c2)cn1` (stereo not drawn) [A1, 1-{3-[5-(1-methyl-1H-pyrazol-4-yl)-1H-pyrrolo[2,3-b]pyridin-3-yl]isoxazol-5-yl}-1-phenylethanol], the half-maximal inhibitory concentration (IC50) in experiment [1] and in experiment [2] was 0.5 to 1000 nM each time.
Turning to `Cn1cc(-c2cnc3[nH]cc(-c4nnc([C@H](N)c5ccccc5Cl)o4)c3c2)cn1` [A112], the IC50 in experiment [1] and in experiment [2] was 0.5 to 1000 nM throughout.
`CC(O)(c1cc(-c2c[nH]c3ncc(-c4cnn(CC(=O)N5CCCCC5)c4)cc23)no1)c1ccccc1F` (stereo not drawn) [A12]: the concentration for half-maximal inhibition (IC50) in experiment [1] and in experiment [2] was 0.5 to 1000 nM each time.
As to `Cn1cc(-c2cnc3[nH]cc(-c4cc([C@](C)(O)c5cccc(F)c5)on4)c3c2)cn1` (single isomer, unassigned) [A63], the IC50 was 0.5 to 1000 nM in experiment [1] and 1000 to 10000 nM in experiment [2].
For `Cn1cc(-c2cnc3[nH]cc(-c4nnc(C5(c6cccnc6)CCCC5)o4)c3c2)cn1` [A110], in that order: 0.5 to 1000 nM and 1000 to 10000 nM.
For the molecule `Cn1cc(-c2cnc3[nH]cc(-c4n[nH]c(Cc5ccccc5)n4)c3c2)cn1` [A17], the concentration for half-maximal inhibition (IC50) in experiment [1] was 0.5 to 1000 nM; in experiment [2] it was 1000 to 10000 nM.
On the same counts, the results for `Cn1cc(-c2cnc3[nH]cc(-c4n[nH]c(C5(c6cccnc6)CC5)n4)c3c2)cn1` [A125, 5-(1-methyl-1H-pyrazol-4-yl)-3-[5-(1-pyridin-3-ylcyclopropyl)-1H-1,2,4-triazol-3-yl]-1H-pyrrolo[2,3-b]pyridine] are 0.5 to 1000 nM and 1000 to 10000 nM.
For `Cn1cc(-c2cnc3[nH]cc(-c4n[nH]c(Cc5cccc(F)c5)n4)c3c2)cn1` [A14, 3-[5-(3-fluorobenzyl)-1H-1,2,4-triazol-3-yl]-5-(1-methyl-1H-pyrazol-4-yl)-1H-pyrrolo[2,3-b]pyridine], in that order: 0.5 to 1000 nM and 1000 to 10000 nM.
As for `Cn1cc(-c2cnc3[nH]cc(-c4cc(C(O)c5ccccc5)on4)c3c2)cn1` (stereo not drawn) [A75], the half-inhibitory concentration (IC50) in experiment [1] and in experiment [2] was 0.5 to 1000 nM each time.
Take `Cn1cc(-c2cnc3[nH]cc(-c4nnc(C(N)c5cc(F)cc(F)c5)o4)c3c2)cn1` (stereo not drawn) [A117]: the 50% inhibitory concentration (IC50) in experiment [1] and in experiment [2] was 1000 to 10000 nM throughout.
For the molecule `Cn1cc(-c2cnc3[nH]cc(-c4noc(C(C)(O)c5ccccc5)n4)c3c2)cn1` (stereo not drawn) [A31], the IC50 in experiment [1] and in experiment [2] was 0.5 to 1000 nM throughout.
`Cn1cc(-c2cnc3[nH]cc(-c4csc(Cc5cccc(F)c5F)n4)c3c2)cn1` [A9]: the concentration for half-maximal inhibition (IC50) in experiment [1] and in experiment [2] was 1000 to 10000 nM in each case.
On to `Cn1cc(-c2cnc3[nH]cc(-c4cc(C(C)(O)c5ccccc5)n(CCO)n4)c3c2)cn1` (stereo not drawn) [A68], for which the concentration for half-maximal inhibition (IC50) lay in the range of 0.5 to 1000 nM in experiment [1] and 1000 to 10000 nM in experiment [2].
As to `Cn1cc(-c2cnc3[nH]cc(-c4n[nH]c(Cc5ccccc5F)n4)c3c2)cn1` [A15], the concentration for half-maximal inhibition (IC50) in experiment [1] is 0.5 to 1000 nM; in experiment [2], 1000 to 10000 nM.
On to `Cn1cc(-c2cnc3[nH]cc(-c4nnc(C(O)c5cccc(Cl)c5)o4)c3c2)cn1` (stereo not drawn) [A59], for which the IC50 in experiment [1] and in experiment [2] was 0.5 to 1000 nM each time.
Consider `Cn1cc(-c2cnc3[nH]cc(-c4nnc(Cc5ccccc5F)o4)c3c2)cn1` [A22], for which the IC50 in experiment [1] and in experiment [2] was 0.5 to 1000 nM each time.
Turning to `Cn1cc(-c2cnc3[nH]cc(-c4cc(C(C)(O)c5ccccc5Cl)[nH]n4)c3c2)cn1` (stereo not drawn) [A88], the half-inhibitory concentration (IC50) is 0.5 to 1000 nM in experiment [1] and 1000 to 10000 nM in experiment [2].
Consider `Cn1cc(-c2cnc3[nH]cc(-c4csc(Cc5ccccc5F)n4)c3c2)cn1` [A4], for which the concentration for half-maximal inhibition (IC50) in experiment [1] and in experiment [2] was 1000 to 10000 nM in each case.
Turning to `Cn1cc(-c2cnc3[nH]cc(-c4nc(C(C)(O)c5cccc(F)c5)no4)c3c2)cn1` (stereo not drawn) [A72], the half-maximal inhibitory concentration (IC50) in experiment [1] and in experiment [2] was 0.5 to 1000 nM throughout.
Take `Cn1cc(-c2cnc3[nH]cc(-c4nnc(C(F)c5cccc(F)c5)o4)c3c2)cn1` (stereo not drawn) [A82]: the IC50 in experiment [1] and in experiment [2] was 1000 to 10000 nM each time.
`Cn1cc(-c2cnc3[nH]cc(-c4nnc(C5(c6ccnc(Cl)c6)CC5)o4)c3c2)cn1` [A91]: the IC50 in experiment [1] and in experiment [2] was 1000 to 10000 nM in each case.
With `Cn1cc(-c2cnc3[nH]cc(-c4nnc(C5(c6ccccc6Cl)CC5)o4)c3c2)cn1` [A83], the half-maximal inhibitory concentration (IC50) in experiment [1] and in experiment [2] was 0.5 to 1000 nM each time.
Consider `Cn1cc(-c2cnc3[nH]cc(-c4cc(C(O)c5ccccc5)[nH]n4)c3c2)cn1` (stereo not drawn) [A74], for which the IC50 in experiment [1] and in experiment [2] was 0.5 to 1000 nM each time.
On to `Cn1cc(-c2cnc3[nH]cc(-c4nnc(C(O)c5cccc(F)c5F)o4)c3c2)cn1` (stereo not drawn) [A46], for which the IC50 in experiment [1] and in experiment [2] was 0.5 to 1000 nM in each case.
`Cn1cc(-c2cnc3[nH]cc(-c4noc(C(O)c5ccccc5)n4)c3c2)cn1` (stereo not drawn) [A23]: the figures for the half-maximal inhibitory concentration (IC50) in experiment [1] and in experiment [2] were 0.5 to 1000 nM and 1000 to 10000 nM, respectively.
As for `Cn1cc(-c2cnc3[nH]cc(-c4nnc(C5(c6ccccn6)CC5)o4)c3c2)cn1` [A120], the half-maximal inhibitory concentration (IC50) in experiment [1] and in experiment [2] was 1000 to 10000 nM each time.

The record behind these values is US20130245355A1, “3-HETARYL-SUBSTITUTED PYRROLO[2,3 B]PYRIDINE DERIVATIVES AS PDK1 INHIBITORS” (MERCK PATENT GMBH, priority 2010, published 2013).
